System: isolated rat bladder strips
Test: Inhibition of contractions of isolated rat bladder strips
Details: 0.5 h
Experimental: The compounds of the examples were tested to determine their ability to inhibit contractions of isolated rat bladder strips. See Foster, C. […] Malmgren, A. et al. J.Urol.
Male Sprague-Dawley rats (150-200 g) were obtained from ACE animal suppliers. Animals were allowed free access to food and water.
Animals were euthanized by CO2 asphyxiation followed by a bilateral thoracotomy. […] The bladder was opened and then cut into strips 1-2 mm in width and 7-10 mm in length. The strips were subsequently suspended in a 10 ml tissue bath under an initial resting tension of 1.5 g. The strips were held in place by two surgical clips one of which was attached to a fixed hook while the other was attached to an isometric force transducer. […] The carbachol was then washed out and the tissue allowed to relax to its resting level of activity. Following a further 30 minute period of recovery an additional 15 mM KCl were introduced into the tissue bath. […] Following stabilization of this enhanced level of contractile activity, incremental increases in the concentration of test compound or vehicle were introduced into the tissue bath. Contractile activity was measured for each compound or vehicle concentration during the last minute of a 30 minute challenge.
Isometric force developed by the bladder strips was measured using a force transducer and recorded on a polygraph. Contractile activity was assessed by measuring either the average amplitude of the contractions (baseline to peak force) occurring during a one minute period or, preferably, by integrating the contractile activity with respect to time (one minute measuring period).
The percentage inhibition of contractile activity evoked by each concentration of a given test compounds was used to generate a concentration-response curve.

Row | SMILES | IC50 [nM]
1 | O=C(CN1CCOCC1)Nc1ccc2oc3c(c2c1)CCCCC3 [Example 40, 2-MORPHOLIN-4-YL-N-7,8,9,10-TETRAHYDRO-6H-BENZO[b]CYCLOHEPTA[D]FURAN-2-YLACETAMIDE] | 1000 to 3000
2 | CN(C)CCN(C)CC(=O)Nc1ccc2oc3c(c2c1)CCCCC3 [Example 41] | 1000 to 5000
3 | O=C(CN1CCC2(CC1)OCCO2)Nc1ccc2oc3c(c2c1)CCCCC3 [Example 43, 2-(1,4-DIOXA-8-AZASPIRO[4.5]DEC-8-YL)-N-7,8,9,10-TETRAHYDRO-6H-BENZO[b]CYCLOHEPTA[D]FURAN-2-YLACETAMIDE] | 1000 to 3000
4 | CN1CCN(CC(=O)Nc2ccc3oc4c(c3c2)CCCCC4)CC1 [Example 44, 2-(4-METHYLPIPERAZIN-1-YL)-N-7,8,9,10-TETRAHYDRO-6H-BENZO[B]CYCLOHEPTA[D]FURAN-2-YLACETAMIDE] | 1000 to 3000
5 | CCN(C)CC(=O)Nc1ccc2oc3c(c2c1)CCCCC3 [Example 46, N^2-ETHYL-N^2-METHYL-N′-7,8,9,10-TETRAHYDRO-6H-BENZO[B]CYCLOHEPTA[D]FURAN-2-YLGLYCINAMIDE] | 7000 to 9000
6 | O=C(CN1CCN(c2ncccn2)CC1)Nc1ccc2oc3c(c2c1)CCCCC3 [Example 50, 2-(4-PYRIMIDIN-2-YLPIPERAZIN-1-YL)-N-7,8,9,10-TETRAHYDRO-6H-BENZO[B]CYCLOHEPTA[D]FURAN-2-YLACETAMIDE] | 3000 to 5000

Same assay, conditions: 0.5 h, concentration eliciting 50% inhibition of pre-drug contractile activity, strips stimulated with additional 15 mM KCl, 30 minute challenge per concentration, read-out: IC50

Row | IC50 [nM] | SMILES
7 | 1500 to 2000 | C[C@@H](OCc1ccccc1)C(NC(=O)OC(C)(C)C)C(=O)Nc1ccc2oc3c(c2c1)CCCCC3 (stereo in doubt) [Example 59, TERT-BUTYL {(1R,2R)-2-(BENZYLOXY)-1-[(7,8,9,10-TETRAHYDRO-6H-BENZO[B]CYCLOHEPTA[D]FURAN-2-YLAMINO)CARBONYL]PROPYL}CARBAMATE]
8 | 10000 to 15000 | CCCC(=O)Nc1ccc2oc3c(c2c1)CCCC3 [Example 10, N-(6,7,8,9-TETRAHYDRO-DIBENZOFURAN-2-YL)-BUTYRAMIDE]
9 | 1000 to 3000 | CCCCCC(=O)Nc1ccc2oc3c(c2c1)CCCC3 [Example 22, N-(6,7,8,9-TETRAHYDRODIBENZO[B,D]FURAN-2-YL)HEXANAMIDE]
10 | 3000 to 5000 | CCCCC(=O)Nc1ccc2oc3c(c2c1)CCCCC3 [Example 31, N-(7,8,9,10-TETRAHYDRO-6H-BENZO[B]CYCLOHEPTA[d]FURAN-2-YL)PENTANAMIDE]
11 | 9000 to 12000 | CCOC(=O)CCC(=O)Nc1ccc2oc3c(c2c1)CCCCC3 [Example 32, ETHYL 4-OXO-4-(7,8,9,10-TETRAHYDRO-6H-BENZO[B]CYCLOHEPTA[D]FURAN-2-YLAMINO)BUTANOATE]
12 | 2000 to 3000 | CC(C)(C)c1ccc(C(=O)Nc2ccc3oc4c(c3c2)CCCCC4)cc1 [Example 33, 4-TERT-BUTYL-N-(7,8,9,10-TETRAHYDRO-6H-BENZO[B]CYCLOHEPTA[D]FURAN-2-YL)BENZAMIDE]
13 | 500 to 800 | CCC(=O)Nc1ccc2oc3c(c2c1)CCCCC3 [Example 34, N-(7,8,9,10-TETRAHYDRO-6H-BENZO[B]CYCLOHEPTA[D]FURAN-2-YL)PROPANAMIDE]
14 | 6000 to 9000 | CCCCCC(=O)Nc1ccc2oc3c(c2c1)CCCCC3 [Example 35, N-(7,8,9,10-TETRAHYDRO-6H-BENZO[B]CYCLOHEPTA[D]FURAN-2-YL)HEXANAMIDE]
15 | 3000 to 5000 | O=C(CCc1ccccc1)Nc1ccc2oc3c(c2c1)CCCCC3 [Example 36, 3-PHENYL-N-(7,8,9,10-TETRAHYDRO-6H-BENZO[B]CYCLOHEPTA[D]FURAN-2-YL)PROPANAMIDE]

Same assay, conditions: maximum percentage inhibition of contractile activity, 30 μM, strips stimulated with additional 15 mM KCl, read-out: % Inhibition of Contractility @ 30 μM

Row | SMILES | inhibition at 30 µM [%]
16 | O=C(Nc1ccc2oc3c(c2c1)CCCC3)c1ccc(Cl)cc1 [Example 17, 4-CHLORO-N-(6,7,8,9-TETRAHYDRO-DIBENZOFURAN-2-YL)-BENZAMIDE] | 25 to 30
17 | O=C(Nc1ccc2oc3c(c2c1)CCCC3)c1ccc(F)cc1 [Example 19, 4-FLUORO-N-(6,7,8,9-TETRAHYDRODIBENZO[B,D]FURAN-2-YL)BENZAMIDE] | 25 to 35
18 | O=C(Nc1ccc2oc3c(c2c1)CCCC3)c1ccc(C(F)(F)F)cc1 [Example 20, N-(6,7,8,9-TETRAHYDRODIBENZO[B,D]FURAN-2-YL)-4-(TRIFLUOROMETHYL)BENZAMIDE] | 15 to 40
19 | O=C(CCc1ccccc1)Nc1ccc2oc3c(c2c1)CCCC3 [Example 21, 3-PHENYL-N-(6,7,8,9-TETRAHYDRODIBENZO[B,D]FURAN-2-YL)PROPANAMIDE] | 10 to 30
20 | O=C(Cc1ccc(F)cc1)Nc1ccc2oc3c(c2c1)CCCCC3 [Example 30, 2-(4-FLUOROPHENYL)-N-(7,8,9,10-TETRAHYDRO-6H-BENZO[B]CYCLOHEPTA[D]FURAN-2-YL)ACETAMIDE] | 30 to 50
21 | O=C(Nc1ccc2oc3c(c2c1)CCCCC3)c1ccc(C(F)(F)F)cc1 [Example 38, N-7,8,9,10-TETRAHYDRO-6H-BENZO[B]CYCLOHEPTA[D]FURAN-2-yl-4-(TRIFLUOROMETHYL)BENZAMIDE] | 5 to 10
22 | C[C@H](NC(=O)OCc1ccccc1)C(=O)Nc1ccc2oc3c(c2c1)CCCCC3 [Example 49, BENZYL [(1S)-1-METHYL-2-OXO-2-(7,8,9,10-TETRAHYDRO-6H-BENZO[B]CYCLOHEPTA[D]FURAN-2-YLAMINO)ETHYL]CARBAMATE] | 30 to 40
23 | CC(C)(C)OC(=O)NCC(=O)Nc1ccc2oc3c(c2c1)CCCCC3 [Example 51, TERT-BUTYL [2-OXO-2-(7,8,9,10-TETRAHYDRO-6H-BENZO[B]CYCLOHEPTA[D]FURAN-2-YLAMINO)ETHYL]CARBAMATE] | 25 to 40
24 | CC(C)(C)OC(=O)N[C@@H](Cc1ccccc1)C(=O)Nc1ccc2oc3c(c2c1)CCCCC3 [Example 53, TERT-BUTYL [(1S)-1-BENZYL-2-OXO-2-(7,8,9,10-TETRAHYDRO-6H-BENZO[B]CYCLOHEPTA[D]FURAN-2-YLAMINO)ETHYL]CARBAMATE] | 15 to 25

Same assay, conditions: read-out: % Inhibition of Contractility @ 30 μM

Row | SMILES | inhibition at 30 µM [%]
25 | O=C(Cc1cccs1)Nc1ccc2oc3c(c2c1)CCCCC3 [Example 37, N-(7,8,9,10-TETRAHYDRO-6H-BENZO[B]CYCLOHEPTA[D]FURAN-2-YL)-2-THIEN-2-YLACETAMIDE] | 20 to 40
26 | O=C(CCl)Nc1ccc2oc3c(c2c1)CCCCC3 [Example 39, 2-CHLORO-N-7,8,9,10-TETRAHYDRO-6H-BENZO[B]CYCLOHEPTA[D]FURAN-2-YLACETAMIDE] | 15 to 35
27 | CN(CCc1ccccn1)CC(=O)Nc1ccc2oc3c(c2c1)CCCCC3 [Example 42, N^2-METHYL-N^2-(2-PYRIDIN-2-YLETHYL)-N^1-7,8,9,10-TETRAHYDRO-6H-BENZO[B]CYCLOHEPTA[D]FURAN-2-YLGLYCINAMIDE] | 30 to 40
28 | O=C(COCCO)Nc1ccc2oc3c(c2c1)CCCCC3 [Example 45, 2-(2-HYDROXYETHOXY)-N-7,8,9,10-TETRAHYDRO-6H-BENZO[B]CYCLOHEPTA[D]FURAN-2-YLACETAMIDE] | 15 to 25
29 | CN(CCO)CC(=O)Nc1ccc2oc3c(c2c1)CCCCC3 [Example 47, N^2-(2-HYDROXYETHYL)-N^2-METHYL-N′-7,8,9,10-TETRAHYDRO-6H-BENZO[B]CYCLOHEPTA[D]FURAN-2-YLGLYCINAMIDE] | 10
30 | CC(C)(C)OCC(=O)Nc1ccc2oc3c(c2c1)CCCCC3 [Example 48, 2-TERT-BUTOXY-N-7,8,9,10-TETRAHYDRO-6H-BENZO[B]CYCLOHEPTA[D]FURAN-2-YLACETAMIDE] | 10 to 15
31 | NCC(=O)Nc1ccc2oc3c(c2c1)CCCCC3 [Example 52, N^1-7,8,9,10-TETRAHYDRO-6H-BENZO[B]CYCLOHEPTA[D]FURAN-2-YLGLYCINAMIDE] | 20 to 30

Reference: patent US7601856B2 (Wyeth, priority 2006, dated 2009)
